Here are results for nine molecules from patent publication US8507411B2, “Neoglycorandomization and digitoxin analogs” (priority 2004, dated 2013).

For one data set, the system named is NmuMG. Description: cells. The class given is cell-based, mouse. Put shortly: (§1)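 Live-cell esterase read-out: calcein AM added for 30 min at 37° C after 72 h compound exposure and a PBS wash. Dosing used a five-point 1:2 series. IC50 values are variable-slope logistic fits over at least six replicate experiments.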
The test system of the next data set is NCI-H460. Nature of the data set: High-throughput calcein AM cytotoxicity assay, NCI-H460. The class given is cell-based, human. The conditions noted are these: NCI-H460 cells; read-out: IC50, NCI-H460. From the text: (§2) Standard errors are depicted with error bars.
Another data set relates to MCF7. Description: High-throughput calcein AM cytotoxicity assay, MCF7. The conditions noted are these: MCF7 cells; read-out: IC50, MCF7. Type of data set: cell-based, human.
Description: as §2

The test system of another data set is SF-268. Description: cells. Type of data set: cell-based, human. Put shortly:
as §1

The test system of a further data set is SK-OV-3. Nature of the data set: cells. Type of data set: cell-based, human. Put shortly: as §1
The test system of a further data set is NCI/ADR-RES. Description: cells. The class given is cell-based, human. Put shortly:
as §1

A further data set has as its system Du145. Description: High-throughput calcein AM cytotoxicity assay, Du145. Type of data set: cell-based, human. The conditions noted are these: Du145 cells; read-out: IC50, Du145.
Description: as §2

Another data set relates to HCT-116. Nature of the data set: High-throughput calcein AM cytotoxicity assay, HCT-116. Type of data set: cell-based, human. The conditions noted are these: HCT-116 cells; read-out: IC50, HCT-116.
Description: as §2

Another data set deals with A549. Nature of the data set: High-throughput calcein AM cytotoxicity assay, A549. The class given is cell-based, human. The conditions noted are these: A549 cells; read-out: IC50, A549.
Description: as §2

Data set [1] concerns nine human cancer cell lines and a mouse mammary normal epithelial control line. Description: High-throughput calcein AM cytotoxicity assay, whole cell line panel. The conditions noted are these: for cytotoxicity (in words): cell line panel, 72 h, calcein AM. An excerpt: In the assay, live cells were distinguished by the presence of a ubiquitous intracellular enzymatic activity which converts the non-fluorescent cell-permeable molecule calcein AM to the intensely fluorescent molecule calcein, which is retained within live cells. The IC50 value for each library member represents at least six replicates of dose-response experiments conducted over five concentrations using two-fold dilutions. […] Standard errors are depicted with error bars. Numerical values and corresponding error values can be found in Table 4. Du145: […]; MCF7: human breast carcinoma; HCT-116: human colon carcinoma, Hep3B: human liver carcinoma; SF-268: human CNS glioblastoma; SK-OV-3: human ovary adenocarcinoma; NCI-H460: human lung carcinoma; A549: human lung adenocarcinoma; NCI/ADR-RES: human breast carcinoma; NmuMG: mouse mammary normal epithelial.
Cell Culture: All cell lines except NmuMG were maintained in RPMI 1640 medium from InVitrogen (Cat No. 11875-085) supplemented with 10% w/v fetal bovine serum (FBS) from ICN (Cat No. 2916154) and penicillin-streptomycin (PS) (100 U/mL and 100 μg/mL) from InVitrogen (Cat No. 15140-122). NmuMG cells were maintained in DMEM medium from InVitrogen (Cat No. 11965-084) supplemented with 10% w/v fetal bovine serum (FBS) from ICN (Cat No. 2916154), 10 μg/ml insulin (InVitrogen Cat No 12585-014), and penicillin-streptomycin (PS) (100 U/mL and 100 μg/mL) from InVitrogen (Cat No. 15140-122). Cells were harvested by trypsinization using 0.25% w/v trypsin and 0.1% w/v EDTA from InVitrogen (Cat No. 15-050-057) and then counted in a hemocytometer in duplicate with better than 10% agreement in field counts. Cells were plated at a cell density of 10,000-15,000 cells/well of each Corning Costar 96-well black tissue culture treated microtiter plate (Fisher Cat No. 07-200-627). Cells were grown for 1 h at 37° C., with 5% CO2 in a humidified incubator to allow cell attachment to occur before compound addition.
Library Member Handling and Preparation for Cytotoxicity Assays: Library members were stored at −20° C. under dessicating conditions before the assay. Library member stocks (100×) were prepared in Corning Costar polypropylene 96-well V-bottom polypropylene microtiter plates (Fisher Cat No. 07-200-695). Five serial 1:2 dilutions were made with anhydrous DMSO at 100× the final concentration used in the assay.
Library Member Addition: The library member-containing plates were diluted 1:10 with complete cell culture media. The 10× stocks (10 μL) were added to the attached cells using a Biomek FX liquid handler (Beckman-Coulter). Library member stocks (10 μL) were added to 90 μL of cells in each plate to insure full mixing of stocks with culture media using a Beckman FX liquid handler with 96-well head.
Determination of Cytotoxicity: Cells were incubated with the library members for 72 h before fluorescence reading. Test plates were removed from the incubator and washed 1× in sterile PBS to remove serum containing calcium esterases. Calcein AM reagent (30 μL, […]) was added and the cells were incubated for 30 min at 37° C. Plates were read for emission using a fluorescein filter (excitation 485 nm, emission 535 nm).
IC50 Calculation: For each library member, at least six dose response experiments were conducted. […] To calculate IC50, percent inhibitions were plotted as a function of log [concentration] and then fit to a four-parameter logistic model that allowed for a variable Hill slope using XLfit 4.1.
Cytotoxicity Assays. All cell lines except NmuMG were maintained in RPMI 1640 medium supplemented with 10% w/v fetal bovine serum (FBS) and penicillin-streptomycin (PS) (100 U/mL and 100 μg/mL).

Another data set concerns Hep3B. Description: High-throughput calcein AM cytotoxicity assay, Hep3B. The class given is cell-based, human. The conditions noted are these: Hep 3B cells; read-out: IC50, Hep 3B.
Description: as §2

The mark [2] stands for this setting: NmuMG mouse mammary normal epithelial control line; read-out: IC50, NmuMG.
The mark [3] stands for this setting: SF-268 cells; read-out: IC50, SF-268.
The mark [4] stands for this setting: SK-OV-3 cells; read-out: IC50, SK-OV-3.
The mark [5] stands for this setting: NCI/ADR-RES cells; read-out: IC50, NCI/ADR-RES.
Setting [6] is: read-out: IC50, SF-268; SF-268 cells.
The mark [7] stands for this setting: read-out: IC50, SK-OV-3; SK-OV-3 cells.
Setting [8] is: read-out: IC50, NCI/ADR-RES; NCI/ADR-RES cells.

Read-outs that look alike come from different tables or passages of the source.

Turning to `CON([C@H]1CC[C@@]2(C)[C@H](CC[C@@H]3[C@@H]2CC[C@]2(C)[C@@H](C4=CC(=O)OC4)CC[C@]32O)C1)[C@@H]1O[C@H](CO)[C@@H](O)[C@H](O)[C@H]1O` [4β, D-glucoside], the IC50 is 3.1 µM with NmuMG (setting [2]); 3.5 µM in the data set with NCI-H460; 10 µM with MCF7; 4.5 µM in the data set on SF-268 (setting [3]); 6 µM in the data set on SK-OV-3 (setting [4]); 1.9 µM in the data set on NCI/ADR-RES (setting [5]). The IC50 is 8.2 µM in the data set on Du145, 3.8 µM in the data set with HCT-116, 2.9 µM with A549 and 2.4 µM in the data set on Hep3B. For the same molecule, in data set [1], the “cytotoxicity (in words)” value was “relatively inactive”.
Turning to 6-deoxy-6-azido-D-mannoside [41β], the IC50 was over 25 µM with NmuMG (setting [2]); 2.7 µM in the data set on NCI-H460; 3.3 µM in the data set on MCF7; 2.5 µM in the data set on SF-268 (setting [3]); 2.1 µM in the data set on SK-OV-3 (setting [4]); 0.84 µM with NCI/ADR-RES (setting [5]). In addition, the IC50 was 2 µM in the data set on Du145, 6 µM in the data set with HCT-116, 1.7 µM in the data set on A549 and 1.8 µM in the data set with Hep3B. For the same molecule, in data set [1], the “cytotoxicity (in words)” value is recorded as “not active”.
As to `CON([C@H]1CC[C@@]2(C)[C@H](CC[C@@H]3[C@@H]2CC[C@]2(C)[C@@H](C4=CC(=O)OC4)CC[C@]32O)C1)[C@H]1OC[C@H](O)[C@H](O)[C@H]1O` [32β, L-arabinoside], the IC50 with NmuMG (setting [2]) was 0.4 µM; in the data set with NCI-H460, 0.72 µM; with MCF7 it was 2.2 µM; in the data set on SF-268 (setting [3]), 1 µM; with SK-OV-3 (setting [4]) it was 3 µM; with NCI/ADR-RES (setting [5]) it was 0.65 µM. For the same molecule, the IC50 in the data set with Du145 was 1.1 µM; in the data set with HCT-116 it was 0.3 µM; in the data set with A549 it was 1.7 µM; in the data set on Hep3B, 1.2 µM. In [1], the “cytotoxicity (in words)” value is “relatively inactive”.
On to `CONC1CC[C@]2(C)C3CC[C@]4(C)[C@@H](C5=CC(=O)OC5)CC[C@]4(O)C3CC[C@@H]2C1` (stereo partly drawn) [3α, S—C(3) aglycon], for which the IC50 in the data set on NmuMG (read-out: IC50, NmuMG; NmuMG mouse mammary normal epithelial control line) is over 25 µM; in the data set with NCI-H460, 2.4 µM; in the data set with MCF7 it was 13 µM; with SF-268 (setting [6]), 3.5 µM; with SK-OV-3 (setting [7]), 3 µM; in the data set with NCI/ADR-RES (setting [8]), 5.1 µM. Also, the IC50 in the data set with Du145 is 2.9 µM; with HCT-116 it was 9 µM; with A549, 8.3 µM; in data set [1] (Homo sapiens), over 25 µM.
Regarding `CONC1CC[C@]2(C)C3CC[C@]4(C)[C@@H](C5=CC(=O)OC5)CC[C@]4(O)C3CC[C@@H]2C1` (stereo partly drawn) [3β, R—C(3)aglycon], the IC50 in the data set with NmuMG (Mus musculus, read-out: IC50, NmuMG) was over 25 µM; in the data set with NCI-H460, 0.7 µM; in the data set on MCF7, 1.8 µM; in the data set on SF-268 (setting [6]), 1 µM; with SK-OV-3 (setting [7]), 0.9 µM; in the data set with NCI/ADR-RES (setting [8]), 0.71 µM. Further, the IC50 with Du145 was 1.3 µM; in the data set on HCT-116 it was 1.2 µM; in the data set with A549 it was 1.2 µM; in [1] (Homo sapiens, read-out: average IC50), about 1.1 µM; with Hep3B, 1.4 µM.
Take `CON(C1CCC2(C)C(CCC3C2CCC2(C)C(C4=CC(=O)OC4)CCC32O)C1)C1OC(COC2OC(CO)C(O)C(O)C2O)C(O)C(O)C1O` (stereo not drawn) [35β, melibioside]: the IC50 in the data set with NmuMG (setting [2]) was over 25 µM; in the data set with NCI-H460 it was 29 µM; in the data set with MCF7, over 25 µM; with SF-268 (setting [3]), over 25 µM; in the data set with SK-OV-3 (setting [4]) it was 15 µM; with NCI/ADR-RES (setting [5]) it was 16 µM. The IC50 with Du145 is 27 µM; with HCT-116 it was over 25 µM; in the data set with A549, over 25 µM; in data set [1] (all cell lines) it was over 25 µM; in the data set on Hep3B it was 26 µM.
For the molecule `CON(C1CCC2(C)C(CCC3C2CCC2(C)C(C4=CC(=O)OC4)CCC32O)C1)C1OC(CO)C(O)C(O)C1O` [20α, D-altroside], the IC50 in the data set on NmuMG (setting [2]), with NCI-H460, in the data set with MCF7, in the data set on SF-268 (setting [3]), in the data set on SK-OV-3 (setting [4]) and with NCI/ADR-RES (setting [5]) was over 25 µM throughout. Moreover, the IC50 in the data set with Du145, with HCT-116, with A549 and in the data set on Hep3B was over 25 µM in each case.
As to `CON([C@H]1CC[C@@]2(C)[C@H](CC[C@@H]3[C@@H]2CC[C@]2(C)[C@@H](C4=CC(=O)OC4)CC[C@]32O)C1)[C@@H]1O[C@H](C)[C@H](O)[C@H](O)[C@H]1O` [8β, D-fucoside], the IC50 is over 25 µM in the data set on NmuMG (setting [2]); 1.3 µM with NCI-H460; 11 µM with MCF7; 10 µM with SF-268 (setting [3]); 5 µM in the data set with SK-OV-3 (setting [4]); 1.5 µM with NCI/ADR-RES (setting [5]). Also, the IC50 is 3.9 µM in the data set with Du145, 7 µM with HCT-116, 1.8 µM with A549 and 4.9 µM with Hep3B.
`CON(C1CCC2(C)C(CCC3C2CCC2(C)C(C4=CC(=O)OC4)CCC32O)C1)C1OC(C)C(O)C(O)C1O` [7α, L-fucoside]: the IC50 in the data set with NmuMG (setting [2]), in the data set with NCI-H460, in the data set with MCF7, in the data set on SF-268 (setting [3]), in the data set with SK-OV-3 (setting [4]) and with NCI/ADR-RES (setting [5]) was over 25 µM throughout. For the same molecule, the IC50 in the data set with Du145, with HCT-116, with A549 and with Hep3B was over 25 µM in each case.
